Measurements published in patent US20230349907A1, “BIOPROBES FOR LYSYL OXIDASES AND USES THEREOF” (Pharmaxis Ltd., priority 2020, published 2023).
Several values for one entry are separate records, joined by “and”; a condition that tells them apart may be missing. Equal entries are not always repeated. Structures can show the parent of a compound that is named as a salt.

Columns and labels:
Bovine LOX = Bovine LOX (Bos taurus (Bovine), UniProt P33072); assay: LOX inhibition, peroxidase-coupled Amplex Red assay; type: biochemical; details: 30 min preincubation at 37° C.
Description: (§1) Method to Determine the Ability of Compounds of the Invention to Inhibit LOX and LOXL1-4 from Different Sources […] S., Trackman P. C. and Kagan H. M., Reaction of aortic lysyl oxidase with beta-aminoproprionitrile. J Biol Chem 1983; 258: 4331-4338). There are five LOX family members; these are LOX, LOXL1, LOXL2, LOXL3 and LOXL4. LOX and LOXL family members can be acquired as recombinant active proteins from commercial sources, or extracted from animal tissues like bovine aorta, tendons, pig skin; or prepared from cell cultures. The inhibitory effects of the compounds of the present invention were tested against the given LOX-LOXL preparation using a high-throughput coupled colorimetric method (Holt A. and Palcic M., A peroxidase-coupled continuous absorbance plate-reader assay for flavin monoamine oxidases, copper-containing amine oxidases and related enzymes. Nat. Protoc. 2006; 1: 2498-2505). The assay was developed using either 384 or 96 well format. […] Test compounds were dissolved in DMSO and tested in a Concentration Response Curve (CRC) with 11 data points, typically in the micromolar or nanomolar range after incubation with the enzyme for 30 min at 37° C. 25 μL of a reaction mixture containing twice the KM concentration of putrescine (Sigma Aldrich, e.g. 20 mM for LOX, or 10 mM for LOXL2 and LOXL3), 120 μM Amplex Red (Sigma Aldrich) and 1.5 U/mL horseradish peroxidase (Sigma Aldrich) prepared in 1.2 M urea, 50 mM sodium borate buffer (pH 8.2) were then added to the corresponding wells. The above volumes were doubled in the case of 96 well plates. The fluorescence (RFU) was read every 2.5 m n for 30 m u […], excitation 565 nm and emission 590 nm (Optima; BMG labtech). The slope of the kinetics for each well was calculated using MARS data analysis software (BMG labtech) and this value was used to deduce the IC50 value (Dotmatics).

rhLOXL2 [1] = biological target: T1, rhLOXL2 (Homo sapiens (Human), UniProt Q9Y4K0); assay: LOXL2 inhibition, peroxidase-coupled Amplex Red assay; type: biochemical; details: 30 min preincubation at 37° C.
Description: as §1

Human LOXL3 = Human LOXL3 (Homo sapiens (Human), UniProt P58215); assay: LOXL3 inhibition, peroxidase-coupled Amplex Red assay; type: biochemical; details: 30 min preincubation at 37° C.
Description: (§2) Method to Determine the Ability of Compounds of the Invention to Inhibit LOX and LOXL1-4 from Different Sources […] S., Trackman P. C. and Kagan H. M., Reaction of aortic lysyl oxidase with beta-aminoproprionitrile. J Biol Chem 1983; 258: 4331-4338). There are five LOX family members; these are LOX, LOXL1, LOXL2, LOXL3 and LOXL4. LOX and LOXL family members can be acquired as recombinant active proteins from commercial sources, or extracted from animal tissues like bovine aorta, tendons, pig skin; or prepared from cell cultures. The inhibitory effects of the compounds of the present invention were tested against the given LOX-LOXL preparation using a high-throughput coupled colorimetric method (Holt A. and Palcic M., A peroxidase-coupled continuous absorbance plate-reader assay for flavin monoamine oxidases, copper-containing amine oxidases and related enzymes. Nat. Protoc. 2006; 1: 2498-2505). The assay was developed using either 384 or 96 well format. […] The fluorescence (RFU) was read every 2.5 m n for 30 m u at a range of temperatures from 37° C. to 45° C., excitation 565 nm and emission 590 nm (Optima; BMG labtech). The slope of the kinetics for each well was calculated using MARS data analysis software (BMG labtech) and this value was used to deduce the IC50 value (Dotmatics).

rhLOXL2 [2] = biological target: T1, rhLOXL2; assay: antibody/bioprobe ELISA assay detecting rhLOXL2; type: binding
Protocol: Antibody A (AF2639) was conjugated to beads, bound to high protein binding plates (microlon 600, high binding, flat bottom, Greiner 655061 using coating buffer containing 71.5 mM NaHCO3 and 28.5 mM Na2CO3) overnight at 4° C. After washing with a mild detergent (0.05% Tween 20) to remove excess and unbound antibody, the beads or plates were then incubated with blocking solution (1-5% BSA/TBS) to block any free binding spots, for 1 hour at room temperature. The blocking solution was then removed and rhLOXL2 was added and incubated for 3 hours at 4° C. After washing (with a mild detergent) to remove excess/unbound protein, bioprobe Compound 1-1 (which is conjugated with biotin) was incubated for 2 hours at 37° C. at a concentration between IC50 to IC100 of the rhLOXL2 (as measured in a standard biochemical assay eg Amplex Red/Resorufin). After a washing step (with a mild detergent) streptavidin conjugated to horseradish peroxidase or an appropriate label was added and incubation was continued for 1 hour at room temperature. After an additional washing step (with mild TBS/tween detergent), a detection substrate (resorufin or TMB) was added followed by the fluorescence read at Excitation: 565 nm/Emmission: 590 nm or maximum absorbance at 450 nm. A suitable capture antibody will allow for bioprobe binding whilst providing a large signal.
FIG. 3 depicts the absorbance values (optical density 450 nm) from the antibody/bioprobe assay, using one antibody and Compound 1-1 (FIG. 3A) AF2639 was used as the capture antibody, rhLOXL2 was used as the antigen and 80 nM of Compound 1-1 was used as the detection. FIG. 3B) Fitzgerald 70R-12876 was used as the capture antibody, rhLOXL2 is used as the antigen and 80 nM of Compound 1-1 is used as the detection.
When the bioprobe contains two biotin moieties, the signal is more robust than a single biotin counterpart. […] AF2639 was used as the capture, rhLOXL2 was used as the antigen and 78 nM of Compound 1-12 was used for detection.

rhLOXL2 [3] = biological target: T1, rhLOXL2; assay: sandwich ELISA with bioprobe pre-incubated with rhLOXL2; type: binding; details: 400 nM bioprobe pre-incubated, 1250 ng/mL rhLOXL2, AF2639 capture, antibody C (C-AB179810) detection, FIG. 5
Protocol: A further aim was directed at determining whether the presence of bioprobe (Compound 1-1), pre-incubated and bound to the active site of rhLOXL2, would affect antibody binding and detection by sandwich ELISA. […] FIG. 5 depicts the absorbance values (optical density 460 nm) from the antibody/antibody assay, using two antibodies. Antibody A (AF2639) was used as the capture antibody, 1250 ng/mL rhLOXL2 was used as the antigen and antibody C (C-AB179810) was used as the detection antibody. 400 nM of Compound 1-1 was pre-incubated with rhLOXL2 before commencement of the ELISA assay.

LOX in human serum = LOX in human serum (Homo sapiens (Human), UniProt P28300); assay: LOX Bioprobe Activity Assay (Simoa); type: biochemical
Protocol: The LOX Bioprobe Assay used a Simoa HD-1 analyzer and Simoa technology to run a 2-step digital immunoassay, to measure the activity of unbound LOX in human serum.
This assay used the same anti-LOX capture antibody as for the Protein Concentration Assay. The bioprobe (Compound 1-12) was diluted down to 130 μM in deionized H2O prior to being diluted in Detector Buffer. Before being loaded onto the analyzer, samples were diluted at least 6 fold in Assay Buffer (1% BSA, 0.25% Rabbit Serum, 2% PEG (20k MW), 0.55% Tween-20, 1×PBS; used to dilute samples, controls, and detector reagent). To determine the background signal, diluted samples were pre-incubated for 30 min with LOX inhibitor beta-aminoproprionitrile (BAPN).
In the LOX Bioprobe Activity 2-step immunoassay, target-antibody-coated paramagnetic beads (500k per mL) were combined with diluted sample and biotinylated detector-bioprobe ([…]) in the same incubation cuvette for 54 minutes. […]
A single-labeled target molecule results in sufficient fluorescent signal in 30 seconds to be detected and counted by the Simoa optical system. […] At higher target concentration, when most of the bead-containing wells have one or more labeled target molecules, the total fluorescence signal is proportional to the amount of target present in the sample. […]

Human LOXL1 = Human LOXL1 (Homo sapiens (Human), UniProt Q08397); assay: LOXL1 inhibition, peroxidase-coupled Amplex Red assay; type: biochemical; details: 30 min preincubation at 37° C.
Description: as §2

Human LOXL4 = Human LOXL4 (Homo sapiens (Human), UniProt Q96JB6); assay: LOXL4 inhibition, peroxidase-coupled Amplex Red assay; type: biochemical; details: 30 min preincubation at 37° C.
Description: as §2

T1 sequence (Q9Y4K0 26-774): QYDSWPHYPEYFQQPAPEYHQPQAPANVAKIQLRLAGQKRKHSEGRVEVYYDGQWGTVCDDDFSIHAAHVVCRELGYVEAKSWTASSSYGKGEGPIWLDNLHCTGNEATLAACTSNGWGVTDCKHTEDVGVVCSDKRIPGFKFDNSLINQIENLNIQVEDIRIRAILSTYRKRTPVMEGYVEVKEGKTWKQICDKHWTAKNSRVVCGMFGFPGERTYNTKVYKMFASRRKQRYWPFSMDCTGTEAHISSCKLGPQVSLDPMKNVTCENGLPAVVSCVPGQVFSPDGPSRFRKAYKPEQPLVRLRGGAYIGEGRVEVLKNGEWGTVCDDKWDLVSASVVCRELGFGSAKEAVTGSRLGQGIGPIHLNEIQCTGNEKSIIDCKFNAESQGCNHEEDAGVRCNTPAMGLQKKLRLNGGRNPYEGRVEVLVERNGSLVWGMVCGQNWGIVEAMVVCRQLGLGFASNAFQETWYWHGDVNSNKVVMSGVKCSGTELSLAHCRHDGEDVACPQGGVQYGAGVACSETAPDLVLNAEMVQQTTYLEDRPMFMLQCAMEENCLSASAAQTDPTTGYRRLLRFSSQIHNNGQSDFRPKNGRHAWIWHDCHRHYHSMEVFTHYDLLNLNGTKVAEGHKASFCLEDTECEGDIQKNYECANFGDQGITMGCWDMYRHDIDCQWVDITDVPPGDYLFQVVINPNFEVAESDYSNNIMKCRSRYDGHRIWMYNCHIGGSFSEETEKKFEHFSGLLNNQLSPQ
Sequence of LOX in human serum (P28300 169-417): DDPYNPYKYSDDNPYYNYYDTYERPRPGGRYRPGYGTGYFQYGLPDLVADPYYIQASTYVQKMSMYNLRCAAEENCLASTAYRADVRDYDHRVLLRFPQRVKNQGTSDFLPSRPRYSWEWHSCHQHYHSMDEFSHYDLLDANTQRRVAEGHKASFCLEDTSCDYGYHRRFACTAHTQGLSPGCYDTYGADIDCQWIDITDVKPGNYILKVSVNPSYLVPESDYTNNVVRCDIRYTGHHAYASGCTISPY
Sequence of Bovine LOX (P33072 170-418): as the sequence (P28300 169-417) above, with S10T, G29S, A49P, S64A, T80S, A84X, N142S, G188N, T224S, D231E counted along it
Sequence of Human LOXL3 (P58215 26-753): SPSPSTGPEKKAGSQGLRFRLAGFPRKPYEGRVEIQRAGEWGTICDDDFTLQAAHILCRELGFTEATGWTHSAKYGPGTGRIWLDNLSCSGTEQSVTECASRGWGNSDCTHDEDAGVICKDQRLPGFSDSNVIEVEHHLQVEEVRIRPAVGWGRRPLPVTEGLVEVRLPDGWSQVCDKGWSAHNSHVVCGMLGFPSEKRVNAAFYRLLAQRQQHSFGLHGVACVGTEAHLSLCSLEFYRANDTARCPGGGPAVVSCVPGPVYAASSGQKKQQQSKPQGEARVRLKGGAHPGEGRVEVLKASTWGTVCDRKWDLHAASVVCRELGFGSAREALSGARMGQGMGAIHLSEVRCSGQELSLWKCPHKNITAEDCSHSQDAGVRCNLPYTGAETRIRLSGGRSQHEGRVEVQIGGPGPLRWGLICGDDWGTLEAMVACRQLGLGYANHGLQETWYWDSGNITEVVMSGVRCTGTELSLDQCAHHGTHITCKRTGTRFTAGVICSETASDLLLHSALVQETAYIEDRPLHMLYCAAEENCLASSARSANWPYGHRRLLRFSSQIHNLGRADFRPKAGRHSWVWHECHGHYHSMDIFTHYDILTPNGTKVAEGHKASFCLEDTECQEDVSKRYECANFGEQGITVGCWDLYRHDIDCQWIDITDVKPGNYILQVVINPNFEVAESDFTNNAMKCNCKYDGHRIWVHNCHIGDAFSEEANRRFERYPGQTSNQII
Sequence of Human LOXL4 (Q96JB6 25-756): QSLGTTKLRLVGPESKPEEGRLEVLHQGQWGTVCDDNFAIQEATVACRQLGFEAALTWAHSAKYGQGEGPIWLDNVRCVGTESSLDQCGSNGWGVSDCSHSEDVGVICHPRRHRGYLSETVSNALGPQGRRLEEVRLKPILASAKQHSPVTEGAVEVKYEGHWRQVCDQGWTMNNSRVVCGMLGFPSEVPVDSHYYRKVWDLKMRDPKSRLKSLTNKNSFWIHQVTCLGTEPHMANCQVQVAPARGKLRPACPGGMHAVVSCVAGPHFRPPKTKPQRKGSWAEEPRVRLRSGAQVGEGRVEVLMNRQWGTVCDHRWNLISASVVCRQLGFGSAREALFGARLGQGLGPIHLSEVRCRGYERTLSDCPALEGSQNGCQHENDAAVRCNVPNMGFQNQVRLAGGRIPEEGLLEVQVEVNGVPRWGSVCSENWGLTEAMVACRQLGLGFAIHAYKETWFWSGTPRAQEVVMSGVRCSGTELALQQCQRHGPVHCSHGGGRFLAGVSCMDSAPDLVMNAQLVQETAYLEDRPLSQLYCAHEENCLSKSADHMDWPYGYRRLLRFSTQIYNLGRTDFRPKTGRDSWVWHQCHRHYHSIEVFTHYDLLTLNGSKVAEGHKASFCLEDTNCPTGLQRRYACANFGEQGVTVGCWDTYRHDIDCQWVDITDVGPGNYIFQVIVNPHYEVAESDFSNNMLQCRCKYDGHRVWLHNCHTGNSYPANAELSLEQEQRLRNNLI
Sequence of Human LOXL1 (Q08397 96-574): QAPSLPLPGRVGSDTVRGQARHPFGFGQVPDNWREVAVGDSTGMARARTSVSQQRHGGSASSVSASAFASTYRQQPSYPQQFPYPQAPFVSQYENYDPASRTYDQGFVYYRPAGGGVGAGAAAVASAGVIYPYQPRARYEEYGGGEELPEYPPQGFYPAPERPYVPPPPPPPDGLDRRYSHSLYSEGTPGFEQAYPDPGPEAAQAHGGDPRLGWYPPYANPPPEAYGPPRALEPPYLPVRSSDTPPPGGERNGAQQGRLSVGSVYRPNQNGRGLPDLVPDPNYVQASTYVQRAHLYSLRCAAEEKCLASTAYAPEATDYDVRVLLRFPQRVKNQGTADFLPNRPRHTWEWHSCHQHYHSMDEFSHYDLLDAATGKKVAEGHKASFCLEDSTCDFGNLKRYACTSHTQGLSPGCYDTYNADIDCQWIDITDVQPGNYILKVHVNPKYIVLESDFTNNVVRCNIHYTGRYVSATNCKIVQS

IC50 (Bovine LOX)	IC50 (rhLOXL2 [1])	IC50 (Human LOXL3)	rhLOXL2 signal by bioprobe detection (optical density 450 nm) (rhLOXL2 [2]; Antibody A (AF2639) as capture antibody, 80 nM bioprobe, FIG. 3A)	rhLOXL2 detection by bioprobe (optical density 450 nm) (rhLOXL2 [2]; Antibody B (Fitzgerald 70R-12876) as capture antibody, 80 nM bioprobe, FIG. 3B)	IC50 (Human LOXL1)	IC50 (Human LOXL4)	signal of bioprobe with two biotin moieties versus single biotin counterpart (optical density 460 nm) (rhLOXL2 [2]; AF2639 capture, 78 nM bioprobe, FIG. 4)	Structure (SMILES)	rhLOXL2 detection levels in the presence or absence of bioprobe (rhLOXL2 [3])	effect of inhibitor on bioprobe rhLOXL2 signal (rhLOXL2 [2]; AF2639 capture, Compound 1-1 detection, FIG. 3A)	Average signal (LOX in human serum; human serum + CM (×100 diluted) + BAPN, bioprobe Compound 1-12)	effect of inhibitor on LOX bioprobe signal (LOX in human serum; human serum spiked with human fibroblast conditioned media)
< 300 nM	< 300 nM	< 300 nM						CN(C)S(=O)(=O)c1ccc(C(OCc2ccc(-n3cc(CNC(=O)CCCC[C@@H]4SC[C@@H]5NC(=O)N[C@@H]54)nn3)cc2)c2cn(C/C(F)=C/CN)nn2)cc1 (stereo partly drawn) [Compound 1-15, N-((1-(4-(((1-((Z)-4-amino-2-fluorobut-2-en-1-yl)-1H-1,2,3-triazol-4-yl)(4-(N,N-dimethylsulfamoyl)phenyl)methoxy)methyl)phenyl)-1H-1,2,3-triazol-4-yl)methyl)-5-((3aS,4S,6aR)-2-oxohexahydro-1H-thieno[3,4-d]imidazol-4-yl)pentanamide hydrochloride]				
> 300 nM	< 300 nM		shows a specific rhLOXL2 signal	prevents the detection of rhLOXL2				Cc1c(Cc2ccc(S(=O)(=O)N(C)C)cc2)c2cc(C(=O)N3CCN(C(=O)CCCC[C@@H]4SC[C@@H]5NC(=O)N[C@@H]54)CC3)ccc2n1C/C(F)=C/CN [Compound 1-1, 4-((1-((Z)-4-amino-2-fluorobut-2-en-1-yl)-2-methyl-5-(4-(5-((3aS,4S,6aR)-2-oxohexahydro-1H-thieno[3,4-d]imidazol-4-yl)pentanoyl)piperazine-1-carbonyl)-1H-indol-3-yl)methyl)-N,N-dimethylbenzenesulfonamide hydrochloride]	no difference in rhLOXL2 detection levels			
								N#CCCN [BAPN, β-aminopropionitrile]		the signal is ablated	0.0093 and 0.0077	significantly reduces the signal
> 300 nM	< 300 nM	> 300 nM			> 300 nM	< 300 nM	more robust	NC/C=C(\F)CS(=O)(=O)c1cccc(Cn2cc(-c3cc(OCCCc4cn(CCCCC[C@@H]5SC[C@@H]6NC(=O)N[C@@H]65)nn4)cc(OCCCc4cn(CCCCC[C@@H]5SC[C@@H]6NC(=O)N[C@@H]65)nn4)c3)nn2)c1 [Compound 1-12, (3aS,3a'S,4S,4'S,6aR,6a′R)-4,4′-(((((5-(1-(3-(((Z)-4-amino-2-fluorobut-2-en-1-yl)sulfonyl)benzil)-1H-1,2,3-triazol-4-yl)-1,3-phenylene)bis(oxy))bis(propane-3,1-diyl))bis(1H-1,2,3-triazole-4,1-diyl))bis(pentane-5,1-diyl))bis(tetrahydro-1H-thieno[3,4-d]imidazol-2(3H)-one) hydrochloride]				
